Like-named read-outs stand apart in the source and are kept apart here.
Experiments:
[1] = Cooling strength of coolants relative to menthol; conditions: menthol = 100
Source text: N-ethyl-p-menthane-3-carboxamide has, to date, primarily been used in oral, medicinal and confectionary products, such as breath freshening chewing gums. […]

[2] = Crystallisation / clouding at low temperatures; type: physicochemical
[3] = Volatility compared with menthol; type: physicochemical

Molecule	Cooling strength relative to menthol [1]	also measured
CC1CCC(C(C)C)C(OC(=O)C(C)O)C1 (stereo not shown) [Menthyl lactate]	43	
CC1CCC(C(C)C)C(O)C1 (stereo not shown) [Menthol]	100	loss of coolant on storage (reduction in the level of retained coolant) (personal lubricant formulation, 2190 h): about 50%
CNC(=O)C(C)(C(C)C)C(C)C [WS-23]	75	
CCNC(=O)C1CC(C)CCC1C(C)C (stereo not shown) [WS-3, N-ethyl-p-menthane-3-carboxamide]	150	crystallisation at low temperatures [2]: does not crystallise at low temperatures; volatility [3]: lower volatility than menthol; loss of coolant on storage (reduction in the level of retained coolant) (in personal lubricant formulation, storage for 3 months at 40°C): no loss
C=C(C)C1CCC(C)CC1O (stereo not shown) [Isopulegol, 2-isopropenyl-5-methyl-cyclohexanol]	25	
Menthone lactate	41	
